According to the supplement of paper PMC10307832:

How the values were obtained:
Assay in all cases: relative viability (nuclei count vs DMSO), 5 days (fraction); higher = more cells survive
[1] = compound: CS(=O)(=O)CCNCc1ccc(-c2ccc3ncnc(Nc4ccc(OCc5cccc(F)c5)c(Cl)c4)c3c2)o1 [Lapatinib] + CC(=O)Nc1cccc(-n2c(=O)n(C3CC3)c(=O)c3c(Nc4ccc(I)cc4F)n(C)c(=O)c(C)c32)c1 [Trametinib] (partner 0.02 µM)
In short: (§1)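 After 5 days of treatment, lung cancer cells in 1536-well plates were fixed and stained in a single step (final 0.05% Triton X-100, 1% formaldehyde, 1 ug/ml Hoechst) and their nuclei counted on 4× images. Treatment had been applied by pin tool the day after seeding as one drug alone or as a fixed anchor-drug dose with five library-drug doses (not always all listed) in √10 steps. Relative viability is the nuclei count of treated wells divided by that of vehicle wells, and values are medians of duplicate plates.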

[2] = compound: CC1=NC=CC(=C1)C2=CC=C(C=C2)CC(=O)NC3=CC=C(C=C3)C4=CN=CC=C4 [Wnt-C59] + Cc1cc(Nc2cc(N3CCN(C)CC3)nc(Sc3ccc(NC(=O)C4CC4)cc3)n2)n[nH]1 [Tozasertib] (partner 0.1 µM)
In short: as §1

[3] = compound: CC1=NC=CC(=C1)C2=CC=C(C=C2)CC(=O)NC3=CC=C(C=C3)C4=CN=CC=C4 [Wnt-C59] + CS(=O)(=O)N1CCN(Cc2cc3nc(-c4cccc5[nH]ncc45)nc(N4CCOCC4)c3s2)CC1 [Pictilisib] (partner 1 µM)
In short: as §1

[4] = compound: CC1=NC=CC(=C1)C2=CC=C(C=C2)CC(=O)NC3=CC=C(C=C3)C4=CN=CC=C4 [Wnt-C59] + Cc1nc(NC(=O)N2CCC[C@H]2C(N)=O)sc1-c1ccnc(C(C)(C)C(F)(F)F)c1 [Alpelisib] (partner 2 µM)
In short: as §1

Cell Line	relative viability ([1]; first compound 0.06325 µM)	relative viability ([1]; first compound 0.2 µM)	relative viability ([1]; first compound 0.6325 µM)	relative viability ([1]; first compound 2 µM)	relative viability ([2]; first compound 0.001 µM)	relative viability ([2]; first compound 0.01 µM)	relative viability ([2]; first compound 0.03162 µM)	relative viability ([2]; first compound 0.1 µM)	relative viability ([3]; first compound 0.001 µM)	relative viability ([3]; first compound 0.01 µM)	relative viability ([3]; first compound 0.03162 µM)	relative viability ([3]; first compound 0.1 µM)	relative viability ([4]; first compound 0.001 µM)	relative viability ([4]; first compound 0.01 µM)	relative viability ([4]; first compound 0.03162 µM)	relative viability ([4]; first compound 0.1 µM)	relative viability ([1]; first compound 0.02 µM)
HCC-78	0.509	0.668	0.681	0.675	0.492	0.404	0.504	0.441	0.22	0.185	0.226	0.257	0.298	0.336	0.333	0.363	
HCC-366	0.293	0.253	0.371	0.2	0.156	0.102	0.111	0.124	0.113	0.138	0.149	0.155	0.453	0.287	0.412	0.297	
HCC-827	0.487	0.536	0.517	0.408	0.45	0.427	0.374	0.443	0.83	1.07	1.15	0.971	0.993	0.979	0.971	0.966	0.479
HOP-62	0.378	0.343	0.472	0.293	0.349	0.363	0.394	0.314	0.63	0.76	0.855	0.693	1.13	0.919	1.1	0.644	
IA-LM									0.271	0.251	0.337	0.375	0.84	0.862	0.759	0.804	
LC-2-ad	0.804	0.906	0.864	0.837	0.403	0.45	0.478	0.434	0.435	0.43	0.469	0.472	0.824	0.846	0.953	0.778	
LCLC-97TM1	0.131	0.205	0.181	0.137	0.252	0.205	0.226	0.182	0.23	0.231	0.211	0.187	0.268	0.256	0.19	0.2	
LCLC-103H	0.641	0.664	0.668	0.631	0.516	0.487	0.475	0.474	0.663	0.62	0.634	0.651	0.951	0.969	1.04	1.16	0.659
LK-2		0.782	0.663	0.832	0.165	0.173	0.189	0.18	0.667	0.653	0.557	0.573	1.29	1.06	1.03	0.68	0.858
LOU-NH91	0.684	0.726	0.709	0.665	0.775	0.597	0.695	0.682	0.541	0.577	0.508	0.565	0.744	0.597	0.683	0.79	0.787
LU99A	0.453	0.448	0.511	0.536	0.256	0.276	0.272	0.262	0.309	0.317	0.316	0.321	0.496	0.566	0.604	0.538	0.532
NCI-H522	0.636	0.688	0.809	0.655	0.63	0.566	0.578	0.651									
NCI-H1299									0.739	0.476	0.756	0.793	1.05	1.08	1.05	1.04	
NCI-H1563									0.604	0.665	0.721	0.646	0.925	0.852	1.07	0.888	
NCI-H1623					0.426	0.401	0.415	0.434									
NCI-H1648	0.307	0.256	0.339	0.233	0.581	0.611	0.364	0.524									
NCI-H1650	0.516	0.514	0.46	0.444	0.423	0.477	0.499	0.423	0.549	0.53	0.645	0.532					0.568
NCI-H1703									0.22	0.218	0.324	0.273	0.33	0.328	0.352	0.283	
NCI-H1792		0.402	0.457	0.352					0.273	0.25	0.225	0.332	0.707	0.693	0.806	0.785	
NCI-H2342	0.722	0.65	0.676	0.629	0.643	0.416	0.53	0.624									0.706
SW 900	0.829	0.785	0.771	0.689	0.538	0.502	0.557	0.589									
